Assay [1] addresses T1, Human recombinant PDE2A (hPDE2A) (Homo sapiens, UniProt O00408).
T1 construct: His tag (inferred from metal chelate purification); made in house; host or cells: Sf9 insect cells (baculovirus)
Description: In vitro assay PDE2A (SPA, 3H-cGMP hydrolysis). In kind it is biochemical. As to conditions: for Emax: read-out: hPDE2A Emax.

The target in assay [2] is T2, Human recombinant PDE3A (hPDE3A) (Homo sapiens, UniProt Q14432).
T2 construct: purchased Scottish Biomedical; host or cells: Sf9 insect cells
Briefly: In vitro assay PDE3A (SPA, 3H-cAMP hydrolysis).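 As to all read-outs here: the method names PDE3A and the table heading PDE3B.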 Type of assay: biochemical. As to conditions: for IC50: hPDE3B pIC50, read-out: pIC50 (converted); for Emax: read-out: hPDE3B Emax, read-out: Emax. The gist of the method:
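Human PDE3A, cloned from brain, as partially purified Sf9 lysate. Substrate 0.4 μM cAMP plus [3H]-cAMP (2.4 μCi/ml final) in 50 mM Tris pH 7.8, 8.3 mM MgCl2, 1.7 mM EGTA, 60 min at room temperature, 1% DMSO final. Hydrolysis read by SPA scintillation counting against no-enzyme blanks and DMSO controls.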

Assay [3] has as its target T3, Human recombinant PDE10A (hPDE10A) (Homo sapiens, UniProt Q9Y233).
T3 construct: His tag (inferred from metal chelate purification); made in house; host or cells: Sf9 insect cells (baculovirus)
Description: In vitro assay PDE10A, human clone (SPA, 3H-cAMP hydrolysis). In kind it is biochemical. In a few lines:
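Human recombinant PDE10A was expressed in Sf9 cells via baculovirus and incubated with compound in 50 mM Tris pH 7.8, 8.3 mM MgCl2, 1.7 mM EGTA. Substrate was 60 nM cAMP plus 0.008 μCi 3H-cAMP for 60 min at room temperature, read by SPA scintillation counting. Controls used 1% DMSO, and blanks omitted enzyme.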

The next assay deals with T4, PDE2A (Rattus norvegicus, UniProt Q01062).
T4 construct: Twenty μm-thick striatal sections were cut; from tissue; host or cells: rat brain, striatal sections
T4 sequence (Q01062 1-928): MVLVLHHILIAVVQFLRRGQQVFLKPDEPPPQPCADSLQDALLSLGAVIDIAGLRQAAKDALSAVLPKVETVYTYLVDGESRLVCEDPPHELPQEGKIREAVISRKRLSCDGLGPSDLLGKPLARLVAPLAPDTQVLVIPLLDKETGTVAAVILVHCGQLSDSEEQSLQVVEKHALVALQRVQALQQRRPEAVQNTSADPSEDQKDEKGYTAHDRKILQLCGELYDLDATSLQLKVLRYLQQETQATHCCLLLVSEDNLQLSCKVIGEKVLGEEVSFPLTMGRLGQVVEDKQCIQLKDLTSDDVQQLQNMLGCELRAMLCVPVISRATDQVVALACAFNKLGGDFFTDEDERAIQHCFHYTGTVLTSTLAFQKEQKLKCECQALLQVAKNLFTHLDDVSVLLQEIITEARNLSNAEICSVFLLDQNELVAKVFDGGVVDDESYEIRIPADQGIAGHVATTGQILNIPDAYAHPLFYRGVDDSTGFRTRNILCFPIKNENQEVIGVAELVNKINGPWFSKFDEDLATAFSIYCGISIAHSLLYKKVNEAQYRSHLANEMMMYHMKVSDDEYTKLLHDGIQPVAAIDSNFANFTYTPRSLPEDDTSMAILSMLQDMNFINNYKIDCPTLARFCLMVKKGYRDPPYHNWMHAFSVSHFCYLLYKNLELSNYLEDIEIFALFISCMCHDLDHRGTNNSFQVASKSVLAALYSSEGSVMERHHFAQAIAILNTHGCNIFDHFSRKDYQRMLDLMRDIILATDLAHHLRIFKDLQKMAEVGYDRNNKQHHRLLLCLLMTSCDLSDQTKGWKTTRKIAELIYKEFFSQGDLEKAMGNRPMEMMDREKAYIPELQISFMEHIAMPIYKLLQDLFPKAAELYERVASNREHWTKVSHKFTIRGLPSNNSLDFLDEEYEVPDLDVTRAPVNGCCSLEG
Briefly: PDE2 occupancy by test compounds, ex-vivo autoradiography with [3H]B-17a. Type of assay: in vivo, Male Wistar rats. The following applies: 10 mg/kg, percentage receptor occupancy, ex-vivo autoradiography, striatum.

Setting [4] is: human recombinant PDE2A, 10 μM cGMP substrate, read-out: hPDE2A pIC50 (converted).
Where [5] appears, read: read-out: hPDE2A pIC50 (converted).
Where [6] appears, read: human clone (h), default, read-out: hPDE10A2 Emax.
[7] abbreviates: human clone (h), default, read-out: hPDE10A2 pIC50 (converted).
[8] abbreviates: human clone by default (no (r) mark), read-out: hPDE10A2 or rPDE10A2 Emax.
Where [9] appears, read: human clone by default (no (r) mark), read-out: hPDE10A2 or rPDE10A2 pIC50 (converted).
[10] abbreviates: hPDE2A pIC50, human recombinant PDE2A, 10 μM cGMP substrate.

Where two headings read alike, the source gives them in different places.

The Emax is the size of the effect at its maximum, as opposed to the concentration needed.

T3 sequence (Q9Y233 267-1055): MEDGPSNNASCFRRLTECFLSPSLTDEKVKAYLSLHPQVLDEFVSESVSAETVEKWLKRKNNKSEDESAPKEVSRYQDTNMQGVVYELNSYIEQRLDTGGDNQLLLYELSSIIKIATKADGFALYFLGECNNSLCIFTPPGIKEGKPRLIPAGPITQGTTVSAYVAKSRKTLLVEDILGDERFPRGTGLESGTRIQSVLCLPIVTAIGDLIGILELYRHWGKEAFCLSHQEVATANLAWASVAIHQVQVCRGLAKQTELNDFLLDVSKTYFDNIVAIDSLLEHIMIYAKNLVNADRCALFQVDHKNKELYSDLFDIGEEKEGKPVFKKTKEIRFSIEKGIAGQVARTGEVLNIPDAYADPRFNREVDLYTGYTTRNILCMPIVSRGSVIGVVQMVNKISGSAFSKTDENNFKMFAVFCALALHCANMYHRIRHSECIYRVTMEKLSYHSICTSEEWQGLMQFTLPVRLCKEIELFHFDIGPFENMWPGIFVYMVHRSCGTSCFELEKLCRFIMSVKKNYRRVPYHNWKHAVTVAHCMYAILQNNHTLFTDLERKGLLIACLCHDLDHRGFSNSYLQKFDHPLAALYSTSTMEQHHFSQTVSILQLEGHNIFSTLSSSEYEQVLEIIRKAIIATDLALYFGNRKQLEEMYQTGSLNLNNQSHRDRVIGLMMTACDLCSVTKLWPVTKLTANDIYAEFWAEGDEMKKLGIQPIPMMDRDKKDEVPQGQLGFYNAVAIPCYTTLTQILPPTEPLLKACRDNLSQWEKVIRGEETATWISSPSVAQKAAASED
T2 sequence (Q14432 whole entry): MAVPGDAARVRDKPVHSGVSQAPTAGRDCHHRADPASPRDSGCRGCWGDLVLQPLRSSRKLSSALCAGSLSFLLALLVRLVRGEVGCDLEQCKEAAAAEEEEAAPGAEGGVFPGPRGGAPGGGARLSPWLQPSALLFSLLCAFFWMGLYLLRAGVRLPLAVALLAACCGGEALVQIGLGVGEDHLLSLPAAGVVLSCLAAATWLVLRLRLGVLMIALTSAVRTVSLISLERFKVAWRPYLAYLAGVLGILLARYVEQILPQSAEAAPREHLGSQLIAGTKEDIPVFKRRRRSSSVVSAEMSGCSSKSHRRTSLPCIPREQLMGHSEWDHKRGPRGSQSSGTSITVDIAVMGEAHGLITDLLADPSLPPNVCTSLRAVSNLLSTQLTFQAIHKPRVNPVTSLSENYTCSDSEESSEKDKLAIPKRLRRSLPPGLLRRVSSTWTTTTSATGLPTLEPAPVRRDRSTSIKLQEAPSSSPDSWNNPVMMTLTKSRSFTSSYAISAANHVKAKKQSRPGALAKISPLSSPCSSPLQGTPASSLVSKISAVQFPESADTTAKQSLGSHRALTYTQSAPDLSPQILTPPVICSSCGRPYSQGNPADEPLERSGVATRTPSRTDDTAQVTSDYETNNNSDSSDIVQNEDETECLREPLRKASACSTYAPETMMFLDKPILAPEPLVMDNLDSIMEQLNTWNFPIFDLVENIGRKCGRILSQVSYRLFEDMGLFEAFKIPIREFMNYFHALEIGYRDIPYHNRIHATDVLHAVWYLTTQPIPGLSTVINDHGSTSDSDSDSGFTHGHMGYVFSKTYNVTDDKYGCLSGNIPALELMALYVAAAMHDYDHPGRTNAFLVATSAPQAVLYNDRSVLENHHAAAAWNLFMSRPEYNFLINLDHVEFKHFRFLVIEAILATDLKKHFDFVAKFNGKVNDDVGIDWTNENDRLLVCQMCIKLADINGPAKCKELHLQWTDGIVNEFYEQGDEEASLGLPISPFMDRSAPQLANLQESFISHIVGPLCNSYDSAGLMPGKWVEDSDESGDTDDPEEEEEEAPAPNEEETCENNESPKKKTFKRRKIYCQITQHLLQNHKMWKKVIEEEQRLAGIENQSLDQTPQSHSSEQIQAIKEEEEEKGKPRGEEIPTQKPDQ
T1 sequence (O00408 whole entry): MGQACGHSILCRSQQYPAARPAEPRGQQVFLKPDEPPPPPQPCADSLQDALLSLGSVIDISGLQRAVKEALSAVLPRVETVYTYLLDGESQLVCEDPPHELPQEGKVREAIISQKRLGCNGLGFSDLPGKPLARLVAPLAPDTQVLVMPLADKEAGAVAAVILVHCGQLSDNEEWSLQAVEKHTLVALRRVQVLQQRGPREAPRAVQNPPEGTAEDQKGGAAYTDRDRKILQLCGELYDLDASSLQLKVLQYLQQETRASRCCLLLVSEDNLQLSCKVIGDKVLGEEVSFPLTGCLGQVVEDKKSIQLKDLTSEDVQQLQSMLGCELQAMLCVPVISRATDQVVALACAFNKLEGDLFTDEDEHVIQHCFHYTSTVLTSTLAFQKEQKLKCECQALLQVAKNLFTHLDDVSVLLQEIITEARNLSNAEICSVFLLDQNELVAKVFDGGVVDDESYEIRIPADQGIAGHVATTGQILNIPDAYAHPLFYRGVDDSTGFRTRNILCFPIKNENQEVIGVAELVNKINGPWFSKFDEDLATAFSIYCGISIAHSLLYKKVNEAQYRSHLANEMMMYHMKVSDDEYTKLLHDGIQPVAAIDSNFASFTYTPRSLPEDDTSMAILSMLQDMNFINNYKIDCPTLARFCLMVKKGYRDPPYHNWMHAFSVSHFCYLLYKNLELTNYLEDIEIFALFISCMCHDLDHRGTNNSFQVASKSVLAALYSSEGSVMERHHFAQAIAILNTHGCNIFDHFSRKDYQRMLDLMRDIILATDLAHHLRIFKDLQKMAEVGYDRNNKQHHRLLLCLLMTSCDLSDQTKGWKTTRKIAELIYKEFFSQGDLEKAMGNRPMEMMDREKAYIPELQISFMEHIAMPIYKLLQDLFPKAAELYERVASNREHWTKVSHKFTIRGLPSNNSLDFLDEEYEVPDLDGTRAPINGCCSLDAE

Consider `Cc1cc(C(=O)N2CC[C@@H](C)[C@H](c3cc(C(F)F)nc4ncnn34)C2)cc(C(C)C)n1` [Compound 101], for which the IC50 in assay [1] (setting [4]) is 0.661 nM; in assay [1] (setting [5]), 0.661 nM; in assay [2], 4790 nM; in assay [3] (setting [7]) it was 57.5 nM. Further, the Emax in assay [1] (human recombinant PDE2A) came out at 101%; in assay [1], 101%; in assay [2] it was 70%; in assay [3] (setting [6]) it was 98%. Also, at PDE2A (sc, route SC (subcutaneous)), the receptor occupancy at 10 mg/kg worked out at 43%.

Take `COc1cc(C(=O)N2[C@H]3CC[C@H](c4cc(C(F)F)nc5ncnn45)[C@@H]2CC3)cc(OC)n1` [Compound 301]: the values for the Emax in assay [1], in assay [2] and in assay [3] (setting [8]) were 100%, 62% and 89%, respectively. Also, the values for the IC50 in assay [1] (setting [5]), in assay [2] and in assay [3] (setting [9]) were 8.13 nM, 6310 nM and 1260 nM, respectively. Also, at PDE2A (route PO (oral)), the receptor occupancy at 10 mg/kg is -7%.

As to `C[C@@H]1CCN(C(=O)c2ccc3c(c2)OCCC3)C[C@H]1c1cc(C(F)F)nc2ncnn12` [Compound 96], the IC50 in assay [1] (setting [4]) was 0.55 nM; in assay [1] (setting [5]) it was 0.55 nM; in assay [2] it was 398 nM; in assay [3] (setting [7]), 33.1 nM. For the same compound, the Emax in assay [1] (human recombinant PDE2A) stood at 100%; in assay [1], 100%; in assay [2], 73%; in assay [3] (setting [6]) it was 95%. Moreover, the receptor occupancy at 10 mg/kg at PDE2A (po, route PO (oral)) is 1%.

Take `Cc1cc(C(=O)N2CC[C@@H](C)[C@H](c3cc(C(F)F)nc4ncnn34)C2)cc(C)c1F` [Compound 115]: the IC50 in assay [1] (hPDE2A pIC50) was 1.05 nM; in assay [1] (setting [10]) it was 1.05 nM; in assay [2] it was 1950 nM; in assay [3] (setting [7]), 77.6 nM. The Emax was 100% in assay [1], 87% in assay [2] and 99% in assay [3] (setting [6]). In addition, the receptor occupancy at 10 mg/kg at PDE2A (po, route PO (oral)) was determined as 23%.

In the case of `Cc1cc([C@H]2CN(C(=O)c3ccc4ncsc4c3)CC[C@@H]2C)n2ncnc2n1` [Compound 2b], the IC50 in assay [1] (hPDE2A pIC50) was 19.1 nM; in assay [1] (setting [10]), 19.1 nM; in assay [2], over 10000 nM; in assay [3] (setting [7]), 269 nM. For the same compound, the results for the maximal response (Emax) in assay [1], in assay [2] and in assay [3] (setting [6]) were 100%, 31% and 95%, respectively. The receptor occupancy at 10 mg/kg on PDE2A (sc, route SC (subcutaneous)) is 3%.

With `Cc1cc([C@@H]2CN(C(=O)c3cc(C)c(C)cn3)CC[C@H]2C)n2ncnc2n1` [Compound 3a], the IC50 in assay [1] (hPDE2A pIC50) was 5.75 nM; in assay [1] (setting [10]) it was 5.75 nM; in assay [2], 3470 nM; in assay [3] (setting [7]), 269 nM. The maximum response (Emax) in assay [1] turned out to be 97%; in assay [2], 77%; in assay [3] (setting [6]), 93%. Moreover, the receptor occupancy at 10 mg/kg at PDE2A (po, route PO (oral)) came out at 0%.

With `C[C@@H]1CCN(C(=O)c2cnc(Cl)c(Cl)c2)C[C@H]1c1cc(C(F)F)nc2ncnn12` [Compound 64], the IC50 in assay [1] (setting [4]) was 1.58 nM; in assay [1] (setting [5]) it was 1.58 nM; in assay [2], 6760 nM; in assay [3] (setting [7]) it was 355 nM. Further, the Emax in assay [1] (human recombinant PDE2A) stood at 99%; in assay [1], 99%; in assay [2], 62%; in assay [3] (setting [6]) it was 96%. Further, the receptor occupancy at 10 mg/kg at PDE2A (po, route PO (oral)) stood at 7%.

For the compound `COc1cc(C(=O)N2CC[C@@H](C)[C@H](c3cc(C(F)F)nc4ncnn34)C2)c(C)cn1` [Compound 53], the IC50 in assay [1] (setting [4]) was 5.62 nM; in assay [1] (setting [5]), 5.62 nM; in assay [2] it was 6760 nM; in assay [3] (setting [7]), 776 nM. Moreover, the Emax in assay [1] (human recombinant PDE2A) was determined as 100%; in assay [1], 100%; in assay [2], 62%; in assay [3] (setting [6]) it was 89%. Further, the receptor occupancy at 10 mg/kg on PDE2A (po, route PO (oral)) was determined as 22%.

For the compound `C[C@@H]1CCN(C(=O)c2cccc(C#N)c2)C[C@H]1c1cc(C(F)F)nc2ncnn12` [Compound 197], the IC50 was 10.2 nM in assay [1] (setting [4]), 10.2 nM in assay [1] (setting [5]), over 10000 nM in assay [2] and 209 nM in assay [3] (setting [7]). Besides, the maximal effect (Emax) in assay [1] (human recombinant PDE2A) was 98%; in assay [1], 98%; in assay [2], 42%; in assay [3] (setting [6]), 96%. For the same compound, the receptor occupancy at 10 mg/kg on PDE2A (po, route PO (oral)) was 8%.

Take `COc1cc(C(=O)N2CC[C@@H](C)[C@H](c3cc(C(F)F)nc4ncnn34)C2)ccc1F` [Compound 195]: the IC50 in assay [1] (setting [4]) was 4.47 nM; in assay [1] (setting [5]), 4.47 nM; in assay [2], 5620 nM; in assay [3] (setting [7]), 372 nM. Moreover, the Emax in assay [1] (human recombinant PDE2A) was 98%; in assay [1], 98%; in assay [2], 70%; in assay [3] (setting [6]) it was 93%. Further, the receptor occupancy at 10 mg/kg at PDE2A (po, route PO (oral)) is -7%; on PDE2A (sc, route SC (subcutaneous)) it was -13%.

As to `Cc1ccc2cc(C(=O)N3CC[C@@H](C)[C@H](c4cc(C(F)F)nc5ncnn45)C3)c(C)nc2c1` [Compound 60], the IC50 is 0.851 nM in assay [1] (setting [4]), 0.851 nM in assay [1] (setting [5]), 1100 nM in assay [2] and 151 nM in assay [3] (setting [7]). In addition, the maximal effect (Emax) in assay [1] (human recombinant PDE2A) was 100%; in assay [1], 100%; in assay [2], 92%; in assay [3] (setting [6]) it was 97%. Besides, the receptor occupancy at 10 mg/kg at PDE2A (po, route PO (oral)) came out at 32%.

With `C[C@@H]1CCN(C(=O)c2ccc3ncsc3c2)C[C@@]1(F)c1cc(C(F)F)nc2ncnn12` [Compound 33], the IC50 in assay [1] (setting [4]) was 14.8 nM; in assay [1] (setting [5]), 14.8 nM; in assay [2], over 10000 nM; in assay [3] (setting [7]) it was 6170 nM. Moreover, the Emax in assay [1] (human recombinant PDE2A) is 99%; in assay [1] it was 99%; in assay [2] it was 25%; in assay [3] (setting [6]), 67%. For the same compound, the receptor occupancy at 10 mg/kg at PDE2A (po, route PO (oral)) was -7%.

On to `Cn1c(C(=O)N2[C@H]3CC[C@H](c4cc(C(F)F)nc5ncnn45)[C@@H]2CC3)cc2ccccc21` [Compound 300], for which the Emax in assay [1] worked out at 100%; in assay [2], 88%; in assay [3] (setting [8]), 80%. The IC50 is 6.46 nM in assay [1] (setting [5]), 2000 nM in assay [2] and 2880 nM in assay [3] (setting [9]). Moreover, the receptor occupancy at 10 mg/kg at PDE2A (route PO (oral)) is -11%.

Turning to `Cc1cc(C(=O)N2CC[C@@H](C)[C@H](c3cc(C(F)F)nc4ncnn34)C2)c(Cl)cn1` [Compound 51], the IC50 in assay [1] (setting [4]) is 5.5 nM; in assay [1] (setting [5]) it was 5.5 nM; in assay [2], over 10000 nM; in assay [3] (setting [7]), 1260 nM. The Emax turned out to be 101% in assay [1] (human recombinant PDE2A), 101% in assay [1], 44% in assay [2] and 86% in assay [3] (setting [6]). The receptor occupancy at 10 mg/kg at PDE2A (po, route PO (oral)) was 20%.

Regarding `Cc1c(C(=O)N2CC[C@@H](C)[C@H](c3cc(C(F)F)nc4ncnn34)C2)oc2ccccc12` [Compound 48], the IC50 was 0.174 nM in assay [1] (setting [4]), 0.174 nM in assay [1] (setting [5]), 87.1 nM in assay [2] and 43.7 nM in assay [3] (setting [7]). Moreover, the Emax in assay [1] (human recombinant PDE2A) was 100%; in assay [1], 100%; in assay [2], 99%; in assay [3] (setting [6]), 100%. Besides, the receptor occupancy at 10 mg/kg at PDE2A (sc, route SC (subcutaneous)) worked out at 96%.

(Values after patent US10947242B2, “[1,2,4]triazolo[1,5and#8208;A]pyrimidine compounds as PDE2 inhibitors” (Janssen Pharmaceutica NV, priority 2016, dated 2021).)
